Experimental data: ChEMBL document CHEMBL1159230, “Anti-AIDS agents, 18. Sodium and potassium salts of caffeic acid tetramers from Arnebia euchroma as anti-HIV agents” (J Nat Prod, 1995)
Values after ≈ are worked out from the molar mass of the structure shown.

What was measured:
[1] = test system: H9; assay: Cytotoxicity against human H9 cells; assay type: cell-based
[2] = Therapeutic index, ratio of IC50 for human H9 cells to EC50 for HIV1 3B; assay type: cell-based; conditions: for Ratio IC50/EC50: h9; for selectivity ratio: H9 cells, read-out: Ratio IC50/EC50
[3] = test system: Human immunodeficiency virus 1; assay: Antiviral activity against HIV1 3B infected in human H9 cells after 4 days by p24 antigen ELISA assay; assay type: functional, organism-based; conditions: Human immunodeficiency virus 1, 3B, H9, 96 h

Compound	EC50 [3] [µg/mL]	IC50 [1] [µg/mL]	Ratio IC50/EC50 [2]	selectivity ratio [2]
O=C(O[C@H](Cc1ccc(O)c(O)c1)C(=O)[O-])C1=Cc2cc(O)c(O[C@@H]3O[C@H](CO)[C@@H](O)[C@H](O)[C@H]3O)cc2[C@@H](c2ccc(O)c(O)c2)C1C(=O)O[C@H](Cc1ccc(O)c(O)c1)C(=O)[O-].[K+].[Na+] (stereo partly drawn)	30	60	–	2
O=C(O[C@H](Cc1ccc(O)c(O)c1)C(=O)[O-])C1=Cc2cc(O)c(O)cc2[C@@H](c2ccc(O)c(O)c2)C1C(=O)O[C@H](Cc1ccc(O)c(O)c1)C(=O)[O-].[Na+].[Na+] (stereo partly drawn)	2.8	55	19.6	–
O=C(O[C@H](Cc1ccc(O)c(O)c1)C(=O)[O-])C1=Cc2cc(O)c(O)cc2[C@H](c2ccc(O)c(O)c2)[C@H]1C(=O)O[C@H](Cc1ccc(O)c(O)c1)C(=O)O.[K+]	1.5	50	33.3	–
O=C(O[C@H](Cc1ccc(O)c(O)c1)C(=O)O)C1=Cc2cc(O)c(O)cc2[C@@H](c2ccc(O)c(O)c2)C1C(=O)O[C@H](Cc1ccc(O)c(O)c1)C(=O)O (stereo partly drawn)	15 (≈ 20.9 µM)	50 (≈ 69.6 µM)	3.3	–

The next lines start with results.

EC50 [3] [µg/mL]	Compound	IC50 [1] [µg/mL]	Ratio IC50/EC50 [2]	selectivity ratio [2]
13 (≈ 18.1 µM)	O=C(O[C@H](Cc1ccc(O)c(O)c1)C(=O)O)C1=Cc2cc(O)c(O)cc2[C@H](c2ccc(O)c(O)c2)[C@H]1C(=O)O[C@H](Cc1ccc(O)c(O)c1)C(=O)O	45 (≈ 62.6 µM)	3.5	–
16	O=C(O[C@H](Cc1ccc(O)c(O)c1)C(=O)[O-])C1=Cc2cc(O)c(O)cc2[C@@H](c2ccc(O)c(O)c2)C1C(=O)O[C@H](Cc1ccc(O)c(O)c1)C(=O)[O-].[K+].[K+] (stereo partly drawn)	50	3.1	–
4	O=C(O[C@H](Cc1ccc(O)c(O)c1)C(=O)[O-])C1=Cc2cc(O)c(O)cc2[C@@H](c2ccc(O)c(O)c2)C1C(=O)O[C@H](Cc1ccc(O)c(O)c1)C(=O)O.[K+] (stereo partly drawn)	50	12.5	–
10 (≈ 40.9 µM)	O=c1ccn([C@@H]2O[C@H](CO)[C@@H](O)[C@H]2O)c(=O)[nH]1 [URIDINE]	–	–	> 10
